ChEMBL document CHEMBL1131475, “Discovery of ritonavir, a potent inhibitor of HIV protease with high oral bioavailability and clinical efficacy” (J Med Chem, 1998)

How the values were obtained:
[1] = Oral bioavailability in rat; format: ADME, organism-based; settings: in vivo
in vivo [2] = settings: rat, plasma, po
in vivo [3] = settings: rat, plasma, po, 10 mg/kg
in vivo [4] = settings: rat, plasma, po; remark: listed apart in the source
in vivo [5] = settings: rat, plasma, iv

SMILES | bioavailability [1] | AUC (in vivo [2]) | Cmax (in vivo [3]) | Tmax (in vivo [4]) | half-life (in vivo [5])
CC(C)c1nc(COC(=O)NC(C(=O)N[C@@H](Cc2ccccc2)C[C@H](O)[C@H](Cc2ccccc2)NC(=O)OCc2cccnc2)C(C)C)co1 (stereo not given in full) | 5% | 200 ng·h/mL | 460 nM | 12 min | 19.8 min
Cc1cccc(CN(C)C(=O)NC(C(=O)N[C@@H](Cc2ccccc2)[C@@H](O)C[C@H](Cc2ccccc2)NC(=O)OCc2cccnc2)C(C)C)n1 (stereo not given in full) | 16% | 950 ng·h/mL | 2420 nM | 15 min | 13.2 min
COCc1nc(COC(=O)NC(C(=O)N[C@@H](Cc2ccccc2)[C@@H](O)C[C@H](Cc2ccccc2)NC(=O)OCc2cccnc2)C(C)C)cs1 (stereo not given in full) | 10% | 630 ng·h/mL | 1790 nM | 13.8 min | 16.2 min
CC(C)C(NC(=O)N(C)Cc1csc(C(C)(C)C)n1)C(=O)N[C@@H](Cc1ccccc1)[C@@H](O)C[C@H](Cc1ccccc1)NC(=O)OCc1cccnc1 (stereo not given in full) | 9.3% | 510 ng·h/mL | 830 nM | 19.8 min | 21.6 min
CC(C)C(NC(=O)N(C)Cc1csc(C2CCC2)n1)C(=O)N[C@@H](Cc1ccccc1)C[C@H](O)[C@H](Cc1ccccc1)NC(=O)OCc1cncs1 (stereo not given in full) | 60% | 6290 ng·h/mL | 2480 nM | 72 min | 24 min
CC(C)c1ncc(COC(=O)NC(C(=O)N[C@@H](Cc2ccccc2)[C@@H](O)C[C@H](Cc2ccccc2)NC(=O)OCc2cccnc2)C(C)C)s1 (stereo not given in full) | 0.8% | 30 ng·h/mL | 100 nM | 12 min | 37.2 min
CC(C)c1nc(CN(C)C(=O)NC(C(=O)N[C@@H](Cc2ccccc2)C[C@H](O)[C@H](Cc2ccccc2)NC(=O)OCc2cnco2)C(C)C)co1 (stereo not given in full) | 35% | 1850 ng·h/mL | 2050 nM | 9 min | 15.6 min
COc1ccc(CN(C)C(=O)NC(C(=O)N[C@@H](Cc2ccccc2)[C@@H](O)C[C@H](Cc2ccccc2)NC(=O)OCc2cccnc2)C(C)C)cn1 (stereo not given in full) | 7.9% | 310 ng·h/mL | 1830 nM | 6 min | 19.2 min
COc1ccc(COC(=O)NC(C(=O)N[C@@H](Cc2ccccc2)[C@@H](O)C[C@H](Cc2ccccc2)NC(=O)OCc2cccnc2)C(C)C)cn1 (stereo not given in full) | 3.3% | 160 ng·h/mL | 560 nM | 9 min | 25.8 min
CC(C)C(NC(=O)OCc1cncc(N)c1)C(=O)N[C@@H](Cc1ccccc1)[C@@H](O)C[C@H](Cc1ccccc1)NC(=O)OCc1cccnc1 (stereo not given in full) | 0.5% | 20 ng·h/mL | 200 nM | 6 min | 43.2 min
Cc1cncc(COC(=O)NC(C(=O)N[C@@H](Cc2ccccc2)[C@@H](O)C[C@H](Cc2ccccc2)NC(=O)OCc2cccnc2)C(C)C)c1 (stereo not given in full) | 5.9% | 210 ng·h/mL | 480 nM | 18 min | 16.8 min
Cc1cccc(COC(=O)NC(C(=O)N[C@@H](Cc2ccccc2)[C@@H](O)C[C@H](Cc2ccccc2)NC(=O)OCc2cccnc2)C(C)C)n1 (stereo not given in full) | 7.5% | 610 ng·h/mL | 1150 nM | 19.8 min | 44.4 min
Cc1cccc(COC(=O)NC(C(=O)N[C@@H](Cc2ccccc2)C[C@H](O)[C@H](Cc2ccccc2)NC(=O)OCc2cccnc2)C(C)C)n1 (stereo not given in full) | 16% | 900 ng·h/mL | 1740 nM | 6 min | 117 min
CC(NC(=O)N(C)Cc1coc(C(C)C)n1)C(=O)N[C@@H](Cc1ccccc1)C[C@H](O)[C@H](Cc1ccccc1)NC(=O)OCc1cncs1 (stereo not given in full) | 23% | 2860 ng·h/mL | 3600 nM | 15 min | 240 min
Cc1ccc(COC(=O)NC(C(=O)N[C@@H](Cc2ccccc2)[C@@H](O)C[C@H](Cc2ccccc2)NC(=O)OCc2cccnc2)C(C)C)cn1 (stereo not given in full) | 6.3% | 240 ng·h/mL | 450 nM | 6 min | 34.2 min
COc1cncc(COC(=O)NC(C(=O)N[C@@H](Cc2ccccc2)C[C@H](O)[C@H](Cc2ccccc2)NC(=O)OCc2cccnc2)C(C)C)c1 (stereo not given in full) | 0.9% | 30 ng·h/mL | 200 nM | 6 min | 48 min
CCc1nc(CN(C)C(=O)NC(C(=O)N[C@@H](Cc2ccccc2)C[C@H](O)[C@H](Cc2ccccc2)NC(=O)OCc2cncs2)C(C)C)cs1 (stereo not given in full) | 70% | 14200 ng·h/mL | 6170 nM | 72 min | 48 min
CC(C)c1nc(CN(C)C(=O)NC(C(=O)N[C@@H](Cc2ccccc2)C[C@H](O)[C@H](Cc2ccccc2)NC(=O)OCc2cnco2)C(C)C)cs1 (stereo not given in full) | 23% | 2650 ng·h/mL | 1590 nM | 34.8 min | 33.6 min
CC(NC(=O)N(C)Cc1csc(C(C)C)n1)C(=O)N[C@@H](Cc1ccccc1)C[C@H](O)[C@H](Cc1ccccc1)NC(=O)OCc1cncs1 (stereo not given in full) | 31% | 1600 ng·h/mL | 1680 nM | 30 min | 54 min
Cc1ncsc1CCOC(=O)NC(C(=O)N[C@@H](Cc1ccccc1)[C@@H](O)C[C@H](Cc1ccccc1)NC(=O)OCc1cccnc1)C(C)C (stereo not given in full) | 9.2% | 360 ng·h/mL | 410 nM | 27 min | 27 min
CC(C)c1nc(CN(C)C(=O)NC(C(=O)N[C@@H](Cc2ccccc2)[C@@H](O)C[C@H](Cc2ccccc2)NC(=O)OCc2cccnc2)C(C)C)cs1 (stereo not given in full) | 24% | 950 ng·h/mL | 1650 nM | 15 min | 45 min
CCc1cccc(CN(C)C(=O)NC(C(=O)N[C@@H](Cc2ccccc2)[C@@H](O)C[C@H](Cc2ccccc2)NC(=O)OCc2cccnc2)C(C)C)n1 (stereo not given in full) | 23% | 730 ng·h/mL | 1530 nM | 9 min | 31.2 min
CC(C)C(NC(=O)OCc1ccccn1)C(=O)N[C@@H](Cc1ccccc1)[C@@H](O)C[C@H](Cc1ccccc1)NC(=O)OCc1cccnc1 (stereo not given in full) | 26% | 1980 ng·h/mL | 4110 nM | 15 min | 114 min
CC(C)c1nc(CN(C)C(=O)NC(C(=O)N[C@@H](Cc2ccccc2)C[C@H](O)[C@H](Cc2ccccc2)NC(=O)OCc2ccno2)C(C)C)cs1 (stereo not given in full) | 7.7% | 270 ng·h/mL | 370 nM | 12 min | 35.4 min
Cc1ccc(CN(C)C(=O)NC(C(=O)N[C@@H](Cc2ccccc2)C[C@H](O)[C@H](Cc2ccccc2)NC(=O)OCc2cccnc2)C(C)C)cn1 (stereo not given in full) | 2.1% | 60 ng·h/mL | 310 nM | 12 min | 21 min
Cc1nc(CN(C)C(=O)NC(C(=O)N[C@@H](Cc2ccccc2)C[C@H](O)[C@H](Cc2ccccc2)NC(=O)OCc2cccnc2)C(C)C)cs1 (stereo not given in full) | 26% | 1060 ng·h/mL | 2100 nM | 9 min | 43.2 min
CCc1nc(CN(C)C(=O)NC(C(=O)N[C@@H](Cc2ccccc2)C[C@H](O)[C@H](Cc2ccccc2)NC(=O)OCc2cncs2)C(C)C)co1 (stereo not given in full) | 57% | 8910 ng·h/mL | 8010 nM | 19.8 min | 120 min
CCc1nc(CN(C)C(=O)NC(C(=O)N[C@@H](Cc2ccccc2)[C@@H](O)C[C@H](Cc2ccccc2)NC(=O)OCc2cccnc2)C(C)C)cs1 (stereo not given in full) | 20% | 870 ng·h/mL | 1460 nM | 12 min | 44.4 min
Cc1nc(CN(C)C(=O)NC(C(=O)N[C@@H](Cc2ccccc2)[C@@H](O)C[C@H](Cc2ccccc2)NC(=O)OCc2cccnc2)C(C)C)cs1 (stereo not given in full) | 15% | 1080 ng·h/mL | 2010 nM | 15 min | 89.4 min
COc1cncc(CN(C)C(=O)NC(C(=O)N[C@@H](Cc2ccccc2)[C@@H](O)C[C@H](Cc2ccccc2)NC(=O)OCc2cccnc2)C(C)C)c1 (stereo not given in full) | 0.8% | 50 ng·h/mL | 440 nM | 6 min | 10.2 min
